Experimental data from ChEMBL document CHEMBL1201862, “PubChem BioAssay data set” (2004).
Calls of active or inactive are those of the source.

Legend:
[1] = target: T1, Interleukin-8 (Homo sapiens, UniProt P10145); test: Dose Response confirmation of uHTS small molecule hits for cystic fibrosis induced NFkb Inhibitors in a PAF-induced IL8 counterscreen.; assay type: functional; conditions: read-out: IC50_Mean
[2] = target: T1, Interleukin-8; test: Dose Response confirmation of uHTS small molecule hits for cystic fibrosis induced NFkb Inhibitors in a TNFa-induced IL8 counterscreen.; assay type: functional; conditions: read-out: IC50_Mean
[3] = target: 26S proteasome non-ATPase regulatory subunit 14 (Homo sapiens, UniProt O00487); test: inhibition of proteasome subunit RPN11 – biochemical, fluorescence polarization, uHTS hits, confirmation (AID 602368); assay type: functional
[4] = target: 72 kDa type IV collagenase (Homo sapiens, UniProt P08253); test: Dose Response validation of uHTS RPN11 inhibitor hits using a MMP-2 Fluorescence assay.; assay type: functional
[5] = target: Prothrombin (Bos taurus, UniProt P00735); test: thrombin inhibition, dose response, biochemical, fluorescence polarization, uHTS hits (AID 602369); assay type: functional
[6] = target: Large T antigen (Simian virus 40, UniProt P03070); assay type: functional, Betapolyomavirus macacae;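 further: Confirmatory-stage PubChem screen for compounds that inhibit SV40 T antigen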
[7] = system: Streptococcus; test: Group A Streptococcus viability loss, dose response, counter-screen for streptokinase expression inhibitor project, luminescence, BacTiterGlo (AID 1915); assay type: functional, organism-based;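 further: potency for reduction of bacterial viability or growth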
[8] = system: Escherichia coli; test: microbe, parasite or virus in culture
[9] = target: T2, Zinc finger protein mex-5 (Caenorhabditis elegans, UniProt Q9XUB2); test: MEX-5/TCR-2 RNA interaction inhibitors, dose response, biochemical, C. elegans, fluorescence polarization (AID 1960)
T2 sequence (Q9XUB2 whole entry): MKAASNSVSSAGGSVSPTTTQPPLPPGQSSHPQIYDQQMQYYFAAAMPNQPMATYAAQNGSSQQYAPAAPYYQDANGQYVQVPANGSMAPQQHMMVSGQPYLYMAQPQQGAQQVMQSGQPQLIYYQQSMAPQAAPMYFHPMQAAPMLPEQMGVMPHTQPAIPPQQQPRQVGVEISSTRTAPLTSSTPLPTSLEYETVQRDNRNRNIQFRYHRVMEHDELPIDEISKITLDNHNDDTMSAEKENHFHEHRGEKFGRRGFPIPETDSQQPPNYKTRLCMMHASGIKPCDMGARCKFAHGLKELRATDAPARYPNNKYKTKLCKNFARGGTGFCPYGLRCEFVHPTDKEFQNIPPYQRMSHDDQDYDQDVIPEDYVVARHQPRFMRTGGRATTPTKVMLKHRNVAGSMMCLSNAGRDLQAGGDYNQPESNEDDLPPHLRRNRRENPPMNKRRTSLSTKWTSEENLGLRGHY

[10] = system: Escherichia coli; test: microbe, parasite or virus in culture; remark: listed apart in the source
[11] = system: Streptococcus sp. 'group A'; test: growth inhibition of control SK(-) GAS strain, dose response, counter-screen for streptokinase expression inhibitor project, luminescence, kanamycin, BacTiterGlo, confirmation (AID 1900); assay type: functional, organism-based
[12] = target: Nuclear receptor subfamily 0 group B member 1 (Homo sapiens, UniProt P51843); test: Luminescence-based cell-based high throughput dose response assay for inhibitors of the orphan nuclear receptor subfamily 0, group B, member 1 (DAX1; NR0B1). [Related pubchem assays (depositor defined):AID504766, AID504790]; assay type: functional
[13] = Luminescence Cell-Based Dose Response to Identify Activators of 5'UTR Stem-Loop Driven Prion Protein mRNA Translation in H4-C Neuroglioblastoma Cells. [Related pubchem assays: 1829 (Project Summary), 1814 (Primary HTS)]; assay type: functional
[14] = Luminescence Cell-Based Dose Response to Identify Activators of Luciferase Translation or Activity in H4-C Neuroglioblastoma Cells. [Related pubchem assays: 1829 (Project Summary), 1814 (Primary HTS)]; assay type: functional
[15] = system: HEK293; test: cells; assay type: functional, cell-based; conditions: Homo sapiens
[16] = system: H4; test: Luminescence Cell-Based Dose Response HTS to Identify Activators of 5'UTR Stem-Loop Driven Prion Protein mRNA Translation in H4 Neuroglioblastoma Cells. [Related pubchem assays: 1829 (Project Summary), 1814 (Primary HTS)]; assay type: functional; conditions: Homo sapiens
[17] = Luminescence Cell-Based Dose Confirmation to Identify Activators of 5'UTR Stem-Loop Driven Alpha-Synuclein mRNA Translation in H4 Neuroglioblastoma Cells. [Related pubchem assays: 1829 (Project Summary), 1814 (Primary HTS)]; assay type: functional
[18] = target: T3, Bcl-2-related protein A1 (Mus musculus, UniProt Q07440); assay type: functional;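 further: confirmatory dose–response counterscreen on Bfl-1, used to check hits from a UBC13 polyubiquitin inhibitor campaign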
T3 sequence (Q07440 whole entry): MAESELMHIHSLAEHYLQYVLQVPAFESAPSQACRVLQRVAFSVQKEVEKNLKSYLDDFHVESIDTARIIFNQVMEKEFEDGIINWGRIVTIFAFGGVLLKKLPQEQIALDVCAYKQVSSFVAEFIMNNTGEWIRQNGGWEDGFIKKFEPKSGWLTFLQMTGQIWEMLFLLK

[19] = target: T4, Small ubiquitin-related modifier 1 (Homo sapiens, UniProt P63165); test: inhibitors of SUMO1 partner interactions, dose response, biochemical, FRET (AID 624383); assay type: functional; conditions: read-out: IC50_Mean
[20] = target: T5, Apoptotic protease-activating factor 1 (Homo sapiens, UniProt O14727); test: SAR analysis of small molecule inhibitors of Apaf-1 in a Fluorescent assay.; assay type: functional; conditions: read-out: IC50_Mean
T5 sequence (O14727 whole entry): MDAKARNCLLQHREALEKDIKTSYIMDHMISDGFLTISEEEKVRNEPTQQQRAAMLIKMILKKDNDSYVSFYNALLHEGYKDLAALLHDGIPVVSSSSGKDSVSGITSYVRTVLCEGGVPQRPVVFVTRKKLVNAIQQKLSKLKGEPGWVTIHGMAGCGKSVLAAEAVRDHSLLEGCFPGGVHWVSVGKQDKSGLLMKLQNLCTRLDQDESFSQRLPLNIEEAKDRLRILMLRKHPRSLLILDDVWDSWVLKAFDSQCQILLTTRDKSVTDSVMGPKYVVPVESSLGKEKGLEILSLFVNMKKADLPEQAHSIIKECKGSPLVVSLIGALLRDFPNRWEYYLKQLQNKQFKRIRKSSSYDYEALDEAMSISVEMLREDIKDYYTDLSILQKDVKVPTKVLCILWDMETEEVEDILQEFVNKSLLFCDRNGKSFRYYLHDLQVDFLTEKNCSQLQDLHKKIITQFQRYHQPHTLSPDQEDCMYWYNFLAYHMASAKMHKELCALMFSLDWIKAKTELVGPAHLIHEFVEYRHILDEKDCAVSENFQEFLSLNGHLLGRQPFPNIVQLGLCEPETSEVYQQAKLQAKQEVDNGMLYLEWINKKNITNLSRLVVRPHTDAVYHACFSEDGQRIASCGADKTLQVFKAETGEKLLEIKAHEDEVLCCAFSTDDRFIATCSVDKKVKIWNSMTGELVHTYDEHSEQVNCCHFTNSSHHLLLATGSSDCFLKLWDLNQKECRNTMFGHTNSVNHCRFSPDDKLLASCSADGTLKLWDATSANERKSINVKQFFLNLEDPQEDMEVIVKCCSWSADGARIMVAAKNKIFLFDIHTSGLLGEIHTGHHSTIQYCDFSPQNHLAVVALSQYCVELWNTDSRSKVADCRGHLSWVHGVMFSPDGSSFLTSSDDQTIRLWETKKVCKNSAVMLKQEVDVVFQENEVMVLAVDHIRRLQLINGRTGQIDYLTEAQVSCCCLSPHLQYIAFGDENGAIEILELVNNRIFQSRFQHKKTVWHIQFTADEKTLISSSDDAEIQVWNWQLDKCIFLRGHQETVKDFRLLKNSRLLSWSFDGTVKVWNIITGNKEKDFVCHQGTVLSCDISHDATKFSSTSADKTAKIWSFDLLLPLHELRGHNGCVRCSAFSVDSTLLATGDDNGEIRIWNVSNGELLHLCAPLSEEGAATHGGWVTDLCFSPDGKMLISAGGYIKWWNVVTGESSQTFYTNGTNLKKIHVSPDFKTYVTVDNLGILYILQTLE

[21] = target: T4, Small ubiquitin-related modifier 1; test: inhibitors of SUMO1 peptide binding, dose response, biochemical, fluorescence polarization, uHTS hits (AID 624382); assay type: functional; conditions: read-out: IC50_Mean
[22] = target: T6, Ubiquitin-conjugating enzyme E2 N (Homo sapiens, UniProt P61088); assay type: functional
T6 sequence (P61088 whole entry): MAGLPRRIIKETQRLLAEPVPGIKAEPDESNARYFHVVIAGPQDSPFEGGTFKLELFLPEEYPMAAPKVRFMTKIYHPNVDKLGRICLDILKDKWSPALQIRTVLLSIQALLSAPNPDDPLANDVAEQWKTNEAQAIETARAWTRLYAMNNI

[23] = target: T6, Ubiquitin-conjugating enzyme E2 N; assay type: functional; remark: listed apart in the source

T1 sequence (P10145 whole entry): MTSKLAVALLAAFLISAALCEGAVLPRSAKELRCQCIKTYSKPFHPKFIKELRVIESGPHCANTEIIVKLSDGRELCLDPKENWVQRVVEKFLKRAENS
T4 sequence (P63165 whole entry): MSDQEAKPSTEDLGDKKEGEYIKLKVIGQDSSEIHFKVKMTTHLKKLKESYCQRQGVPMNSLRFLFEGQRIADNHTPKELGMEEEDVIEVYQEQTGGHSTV
Chain of Nuclear receptor subfamily 0 group B member 1 (P51843 whole entry): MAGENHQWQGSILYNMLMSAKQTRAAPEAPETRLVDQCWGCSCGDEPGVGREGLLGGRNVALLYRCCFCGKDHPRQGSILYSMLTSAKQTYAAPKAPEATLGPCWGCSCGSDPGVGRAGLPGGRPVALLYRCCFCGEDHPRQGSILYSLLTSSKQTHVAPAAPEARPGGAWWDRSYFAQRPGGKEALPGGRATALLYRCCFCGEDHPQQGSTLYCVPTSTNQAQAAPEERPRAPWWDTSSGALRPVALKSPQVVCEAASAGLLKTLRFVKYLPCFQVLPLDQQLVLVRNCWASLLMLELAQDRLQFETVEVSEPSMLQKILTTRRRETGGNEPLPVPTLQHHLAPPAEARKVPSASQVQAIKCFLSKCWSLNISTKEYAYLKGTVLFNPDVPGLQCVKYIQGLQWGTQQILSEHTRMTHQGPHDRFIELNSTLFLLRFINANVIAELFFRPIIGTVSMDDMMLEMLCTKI
Chain of 26S proteasome non-ATPase regulatory subunit 14 (O00487 whole entry): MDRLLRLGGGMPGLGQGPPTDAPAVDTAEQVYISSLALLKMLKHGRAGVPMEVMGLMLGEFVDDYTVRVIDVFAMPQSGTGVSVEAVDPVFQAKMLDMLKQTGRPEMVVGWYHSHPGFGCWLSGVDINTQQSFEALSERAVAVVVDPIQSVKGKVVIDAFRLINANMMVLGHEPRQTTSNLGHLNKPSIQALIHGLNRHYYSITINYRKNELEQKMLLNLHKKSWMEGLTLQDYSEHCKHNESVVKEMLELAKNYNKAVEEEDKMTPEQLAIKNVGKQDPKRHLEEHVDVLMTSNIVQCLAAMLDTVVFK
Chain of Large T antigen (P03070 whole entry): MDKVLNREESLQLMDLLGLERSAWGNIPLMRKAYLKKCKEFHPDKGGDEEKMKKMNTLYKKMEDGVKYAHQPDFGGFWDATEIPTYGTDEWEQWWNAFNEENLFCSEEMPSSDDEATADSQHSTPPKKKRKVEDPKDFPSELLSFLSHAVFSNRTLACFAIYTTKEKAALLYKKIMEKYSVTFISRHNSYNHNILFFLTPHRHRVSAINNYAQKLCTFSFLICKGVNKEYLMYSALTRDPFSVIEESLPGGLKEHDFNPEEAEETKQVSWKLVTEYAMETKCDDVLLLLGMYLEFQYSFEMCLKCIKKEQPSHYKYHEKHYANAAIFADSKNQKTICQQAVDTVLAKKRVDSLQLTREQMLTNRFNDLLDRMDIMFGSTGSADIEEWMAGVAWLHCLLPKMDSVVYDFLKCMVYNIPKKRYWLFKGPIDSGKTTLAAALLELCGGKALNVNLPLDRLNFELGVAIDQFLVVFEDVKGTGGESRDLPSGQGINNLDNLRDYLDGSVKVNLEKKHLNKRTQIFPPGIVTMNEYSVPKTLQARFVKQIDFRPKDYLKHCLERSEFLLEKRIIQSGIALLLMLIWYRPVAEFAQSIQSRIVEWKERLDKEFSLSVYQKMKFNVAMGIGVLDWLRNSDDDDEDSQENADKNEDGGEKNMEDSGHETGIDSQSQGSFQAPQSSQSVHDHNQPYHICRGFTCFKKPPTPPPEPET
Chain of 72 kDa type IV collagenase (P08253 whole entry): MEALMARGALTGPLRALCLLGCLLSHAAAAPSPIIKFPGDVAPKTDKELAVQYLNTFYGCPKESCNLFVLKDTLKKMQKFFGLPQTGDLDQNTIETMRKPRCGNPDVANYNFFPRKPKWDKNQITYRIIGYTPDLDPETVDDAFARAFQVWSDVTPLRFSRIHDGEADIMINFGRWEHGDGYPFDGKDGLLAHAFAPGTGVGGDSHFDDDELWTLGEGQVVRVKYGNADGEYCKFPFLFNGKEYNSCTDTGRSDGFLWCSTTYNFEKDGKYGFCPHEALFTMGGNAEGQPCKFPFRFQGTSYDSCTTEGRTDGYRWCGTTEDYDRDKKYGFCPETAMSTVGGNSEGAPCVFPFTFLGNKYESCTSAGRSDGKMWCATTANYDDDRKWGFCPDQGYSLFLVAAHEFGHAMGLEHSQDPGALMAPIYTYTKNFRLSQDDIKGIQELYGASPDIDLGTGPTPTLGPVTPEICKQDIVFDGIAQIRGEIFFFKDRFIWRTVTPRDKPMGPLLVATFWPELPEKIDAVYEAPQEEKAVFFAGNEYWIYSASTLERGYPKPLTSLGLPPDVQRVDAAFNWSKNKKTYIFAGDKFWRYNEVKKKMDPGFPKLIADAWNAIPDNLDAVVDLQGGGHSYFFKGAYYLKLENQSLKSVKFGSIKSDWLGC

In the case of `CCN1CCN(Cc2ccc(NC(=O)c3ccc(C)c(NC(=O)N4CCNC4=O)c3)cc2C(F)(F)F)CC1`, the IC50 [1] is reported as 56.5 µM (inactive) and the IC50 [2] is reported as > 79 µM (inactive).

With `Cc1cc(C(=O)c2cccs2)c(N)s1` the IC50 [3] was 20.5 µM (active), the IC50 [4] was 32.7 µM (active) and the IC50 [5] was 28.2 µM (active). The IC50 [6] was 51.8 µM (active).

In the case of `C[C@H]1c2cccc(O)c2C(=O)C2=C(O)[C@]3(O)C(O)=C(C(N)=O)C(=O)[C@@H](N(C)C)C3[C@@H](O)C21` (stereo partly drawn), the EC50 [7] is reported as 109 nM (active), the AC50 [8] is reported as 39.8 µM (active) and the EC50 [9] is reported as 45.3 µM (active). For the same molecule, the AC50 [10] was 2.34 µM (active) and the EC50 [11] was < 60 nM (active).

For `Cc1ccccc1Nc1nc(N)nc(CSc2ccc(F)cc2)n1`, the IC50 [12] was > 67.5 µM (inactive), the EC50 [13] was 343 nM (active) and the EC50 [14] was 351 nM (active). The IC50 [15] was > 67.5 µM (inactive), the EC50 [16] was < 100 nM (active) and the EC50 [17] was 229 nM (active).

In the case of `CCN(CC)CCOC(=O)c1ccc(N/C=C(/C#N)c2nc(-c3ccc(OC)cc3)cs2)cc1`, the IC50 [18] is reported as 2.99 µM (active), the IC50 [19] is reported as 5.97 µM (active) and the IC50 [20] is reported as 9.94 µM (active). For the same molecule, the IC50 [21] was > 66.6 µM (inactive), the IC50 [22] was 4.88 µM (active) and the IC50 [23] was 4.3 µM (active).
